Assay results published in patent US20120184542A1, “PYRIDO PYRIMIDINES” (priority 2011, published 2012).
Where a name gives a salt, the structure may show the parent alone. Read-outs that look alike come from different tables or passages of the source.

Experiments:
Human DYRK1A = molecular target: T1, Human DYRK1A (Homo sapiens, UniProt Q13627); experiment: DYRK1A Kinase TR-FRET (IMAP-Tb) Assay; assay type: biochemical; conditions: TR-FRET (IMAP-Tb); ATP 70 μM; 37° C. 60 minutes; read-out: Enzyme IC50 (μM) DYRK1A
T1 construct: purchased Invitrogen PV3997
Summary of the method: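 Recombinant human DYRK1A phosphorylated fluorescent substrate peptide (1.0 μM) with ATP in 10 mM HEPES pH 7.0, 50 mM NaCl, 5 mM MgCl2, 1 mM DTT, 1 mM NaVO4, 0.02% BSA for 60 min at 37 °C. Phosphopeptide detected by IMAP terbium TR-FRET; IC50 reported.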

Human DYRK1B = molecular target: T2, Human DYRK1B (Homo sapiens, UniProt Q9Y463); experiment: DYRK1B Kinase TR-FRET (IMAP-Tb) Assay; assay type: biochemical; conditions: TR-FRET (IMAP-Tb), ATP 70 μM, 37° C. 60 minutes
T2 construct: purchased Invitrogen PR8350B (former PV4649)

[1] = tested on: SW620 human colon cancer cells; experiment: SW620 Cell Viability Assay; assay type: cell-based; conditions: Homo sapiens, SW-620, 96 h, read-out: Cellular EC50 (μM) SW620
Method: Some cells (S—) were allowed to attach for 24 hrs, serum starved for 48 hrs, and then followed with drug treatments Test Compound Solutions were Prepared in Regular Corresponding Media Supplemented with Serum 2. […] Viability Assay: This assay was performed as follows: • Transfer 50 μL of test compound solution per well from the test compound plate onto the cell plate prepared in Step #1. • Mix the plate with treated cells by pipetting up and down three times with 200 μL multi-channel pipette. • Incubate the cells in 5% CO2 incubator @ 37° C. for 4 days. • Run the CellTiter-Glo™ Luminescent Cell Viability Assay.

[2] = read-out: Enzyme IC50 (μM) DYRK1B
[3] = CellTiter-Glo, 4 days incubation

T2 sequence (Q9Y463 whole entry): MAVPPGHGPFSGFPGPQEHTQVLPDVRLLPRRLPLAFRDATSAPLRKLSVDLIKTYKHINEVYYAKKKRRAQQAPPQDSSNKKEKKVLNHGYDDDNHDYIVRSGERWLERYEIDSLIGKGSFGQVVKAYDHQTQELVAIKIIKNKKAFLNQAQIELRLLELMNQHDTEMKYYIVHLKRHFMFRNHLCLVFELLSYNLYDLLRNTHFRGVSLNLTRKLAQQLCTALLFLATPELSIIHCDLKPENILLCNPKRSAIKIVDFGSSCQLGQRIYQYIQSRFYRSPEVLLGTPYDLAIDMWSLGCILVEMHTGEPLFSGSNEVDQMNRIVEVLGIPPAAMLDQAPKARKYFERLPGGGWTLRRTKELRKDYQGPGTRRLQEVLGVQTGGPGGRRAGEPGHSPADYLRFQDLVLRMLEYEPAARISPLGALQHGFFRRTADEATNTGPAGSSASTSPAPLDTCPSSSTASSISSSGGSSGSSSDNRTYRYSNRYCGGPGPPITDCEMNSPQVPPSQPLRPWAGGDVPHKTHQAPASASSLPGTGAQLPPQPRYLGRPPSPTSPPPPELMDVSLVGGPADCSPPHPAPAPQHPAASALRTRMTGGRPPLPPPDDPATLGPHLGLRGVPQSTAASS

COC(=O)c1ccc(Cl)c(NC(=O)c2cc3cnc(N4CCN(C)CC4)nc3[nH]c2=O)c1 [Example 35, 4-Chloro-3-{[2-(4-methyl-piperazin-1-yl)-7-oxo-7,8-dihydro-pyrido[2,3-d]pyrimidine-6-carbonyl]amino}-benzoic acid methyl ester]
IC50 (Human DYRK1A): 0.0046 µM
IC50 (Human DYRK1B; [2]): 0.031 µM
EC50 [1, 3]: 7.05 µM

COC(=O)c1ccc(Cl)c(NC(=O)c2cc3cnc(NCC(O)CO)nc3[nH]c2=O)c1 (stereo not shown) [Example 38, 4-Chloro-3-{[2-(2,3-dihydroxy-propylamino)-7-oxo-7,8-dihydro-pyrido[2,3-d]pyrimidine-6-carbonyl]amino}-benzoic acid methyl ester]
IC50 (Human DYRK1A): 0.0385 µM
IC50 (Human DYRK1B; [2]): 0.08 µM
EC50 [1, 3]: > 100 µM

COC(=O)c1ccc(Cl)c(NC(=O)c2cc3cnc(N(CCO)CCO)nc3[nH]c2=O)c1 [Example 39, 3-({2-[Bis-(2-hydroxy-ethyl)-amino]-7-oxo-7,8-dihydro-pyrido[2,3-d]pyrimidine-6-carbonyl}-amino)-4-chloro-benzoic acid methyl ester]
IC50 (Human DYRK1A): 0.0128 µM
IC50 (Human DYRK1B; [2]): 0.0248 µM
EC50 [1, 3]: 2.29 µM

COc1ncc2cc(C(=O)Nc3cc(C(=O)NCc4cccc(Cl)c4)ccc3Cl)c(=O)[nH]c2n1 [Example 54, 2-Methoxy-7-oxo-7,8-dihydro-pyrido[2,3-d]pyrimidine-6-carboxylic acid [2-chloro-5-(3-chloro-benzylcarbamoyl)-phenyl]-amide]
IC50 (Human DYRK1A): 0.0215 µM
IC50 (Human DYRK1B; [2]): 0.0677 µM
EC50 [1, 3]: 1.93 µM

COc1ncc2cc(C(=O)Nc3cc(C(=O)NCCc4ccccc4)ccc3Cl)c(=O)[nH]c2n1 [Example 70, 2-Methoxy-7-oxo-7,8-dihydro-pyrido[2,3-d]pyrimidine-6-carboxylic acid (2-chloro-5-phenethylcarbamoyl-phenyl)-amide]
IC50 (Human DYRK1A): 0.352 µM
IC50 (Human DYRK1B; [2]): 0.204 µM
EC50 [1, 3]: 2.3 µM

CSc1ncc2cc(C(=O)Nc3cc(C(=O)NCc4cccc(Cl)c4)ccc3Cl)c(=O)[nH]c2n1 [Example 74, 2-Methylsulfanyl-7-oxo-7,8-dihydro-pyrido[2,3-d]pyrimidine-6-carboxylic acid [2-chloro-5-(3-chloro-benzylcarbamoyl)-phenyl]-amide]
IC50 (Human DYRK1A): 0.0256 µM
IC50 (Human DYRK1B; [2]): 0.0553 µM
EC50 [1, 3]: 1.07 µM

CN1CCN(c2ncc3cc(C(=O)Nc4cc(C(=O)NCc5cccc(Cl)c5)ccc4Cl)c(=O)[nH]c3n2)CC1 [Example 75, 2-(4-Methyl-piperazin-1-yl)-7-oxo-7,8-dihydro-pyrido[2,3-d]pyrimidine-6-carboxylic acid [2-chloro-5-(3-chloro-benzylcarbamoyl)-phenyl]-amide]
IC50 (Human DYRK1A): 0.0211 µM
IC50 (Human DYRK1B; [2]): 0.103 µM
EC50 [1, 3]: 0.563 µM

O=C(NCc1cccc(Cl)c1)c1ccc(Cl)c(NC(=O)c2cc3cnc(OCCCN4CCOCC4)nc3[nH]c2=O)c1 [Example 80, 2-(3-Morpholin-4-yl-propoxy)-7-oxo-7,8-dihydro-pyrido[2,3-d]pyrimidine-6-carboxylic acid [2-chloro-5-(3-chloro-benzylcarbamoyl)-phenyl]-amide]
IC50 (Human DYRK1A): 0.0046 µM
IC50 (Human DYRK1B; [2]): 0.231 µM
EC50 [1, 3]: 0.325 µM

O=C(NCc1cccc(Cl)c1)c1ccc(Cl)c(NC(=O)c2cc3cnc(OCCN4CCOCC4)nc3[nH]c2=O)c1 [Example 81, 2-(2-Morpholin-4-yl-ethoxy)-7-oxo-7,8-dihydro-pyrido[2,3-d]pyrimidine-6-carboxylic acid [2-chloro-5-(3-chloro-benzylcarbamoyl)-phenyl]-amide]
IC50 (Human DYRK1A): 0.0313 µM
IC50 (Human DYRK1B; [2]): 0.128 µM
EC50 [1, 3]: 0.651 µM

COc1ncc2cc(C(=O)Nc3cc(C(=O)NC(CCN)c4cccc(Cl)c4)ccc3Cl)c(=O)[nH]c2n1 (stereo not shown) [Example 84, 2-Methoxy-7-oxo-7,8-dihydro-pyrido[2,3-d]pyrimidine-6-carboxylic acid {5-[3-amino-1-(3-chloro-phenyl)-propylcarbamoyl]-2-chloro-phenyl}-amide]
IC50 (Human DYRK1B; Enzyme IC50 (μM) DYRK1B): 0.0108 µM
EC50 [1]: 0.235 µM

COc1ncc2cc(C(=O)Nc3cc(C(=O)NC(CN)c4cccc(Cl)c4)ccc3Cl)c(=O)[nH]c2n1 (stereo not shown) [Example 85, 2-Methoxy-7-oxo-7,8-dihydro-pyrido[2,3-d]pyrimidine-6-carboxylic acid {5-[2-amino-1-(3-chloro-phenyl)-ethylcarbamoyl]-2-chloro-phenyl}-amide]
IC50 (Human DYRK1A): 0.03 µM
IC50 (Human DYRK1B; [2]): 0.029 µM
EC50 [1, 3]: 0.524 µM

O=C(NCc1cccc(Cl)c1)c1ccc(Cl)c(NC(=O)c2cc3cnc(N4CCOCC4)nc3[nH]c2=O)c1 [Example 86, 2-Morpholin-4-yl-7-oxo-7,8-dihydro-pyrido[2,3-d]pyrimidine-6-carboxylic acid [2-chloro-5-(3-chloro-benzylcarbamoyl)-phenyl]-amide]
IC50 (Human DYRK1A): 0.07 µM
IC50 (Human DYRK1B; [2]): 3.25 µM
EC50 [1, 3]: > 10 µM

CN1CCN(CCOc2ncc3cc(C(=O)Nc4cc(C(=O)NCc5cccc(Cl)c5)ccc4Cl)c(=O)[nH]c3n2)CC1 [Example 87, 2-[2-(4-Methyl-piperazin-1-yl)-ethoxy]-7-oxo-7,8-dihydro-pyrido[2,3-d]pyrimidine-6-carboxylic acid [2-chloro-5-(3-chloro-benzylcarbamoyl)-phenyl]amide]
IC50 (Human DYRK1A): 0.061 µM
IC50 (Human DYRK1B; [2]): 0.0859 µM
EC50 [1, 3]: 0.186 µM

COc1ncc2cc(C(=O)Nc3cc(C(N)=O)ccc3Cl)c(=O)[nH]c2n1 [Example 88, 2-Methoxy-7-oxo-7,8-dihydro-pyrido[2,3-d]pyrimidine-6-carboxylic acid (5-carbamoyl-2-chloro-phenyl)-amide]
IC50 (Human DYRK1B; Enzyme IC50 (μM) DYRK1B): 0.0749 µM
EC50 [1]: > 10 µM

COc1ncc2cc(C(=O)Nc3cc(C(=O)NC(CCN(C)C)c4cccc(Cl)c4)ccc3Cl)c(=O)[nH]c2n1 (stereo not shown) [Example 96, 2-Methoxy-7-oxo-7,8-dihydro-pyrido[2,3-d]pyrimidine-6-carboxylic acid {2-chloro-5-[1-(3-chloro-phenyl)-3-dimethylamino-propylcarbamoyl]-phenyl}-amide]
IC50 (Human DYRK1B; [2]): 0.233 µM
EC50 [1]: 1.97 µM

CN1CCN(CCCNc2ncc3cc(C(=O)Nc4cc(C(=O)NC(CCN)c5ccccc5)ccc4Cl)c(=O)[nH]c3n2)CC1 (stereo not shown) [Example 121, N-(5-(3-Amino-1-phenylpropylcarbamoyl)-2-chlorophenyl)-2-(3-(4-methylpiperazin-1-yl)propylamino)-7-oxo-7,8-dihydropyrido[2,3-d]pyrimidine-6-carboxamide hydrochloride]
IC50 (Human DYRK1B; Enzyme IC50 (μM) DYRK1B): 0.0137 µM
EC50 [1]: 0.157 µM

CN1CCN(CCNc2ncc3cc(C(=O)Nc4cc(C(=O)NC(CCN)c5ccccc5)ccc4Cl)c(=O)[nH]c3n2)CC1 (stereo not shown) [Example 132, N-(5-(3-Amino-1-phenylpropylcarbamoyl)-2-chlorophenyl)-2-(2-(4-methylpiperazin-1-yl)ethylamino)-7-oxo-7,8-dihydropyrido[2,3-d]pyrimidine-6-carboxamide hydrochloride]
IC50 (Human DYRK1B; Enzyme IC50 (μM) DYRK1B): 0.0306 µM
EC50 [1]: 0.228 µM

COc1ncc2cc(C(=O)Nc3cc(C(=O)N[C@H](CN)c4ccccc4)ccc3Cl)c(=O)[nH]c2n1 [Example 133, (S)—N-(5-(2-Amino-1-phenylethylcarbamoyl)-2-chlorophenyl)-2-methoxy-7-oxo-7,8-dihydropyrido[2,3-d]pyrimidine-6-carboxamide]
IC50 (Human DYRK1B; [2]): 0.0365 µM
EC50 [1]: 0.738 µM

NCCC(NC(=O)c1ccc(Cl)c(NC(=O)c2cc3cnc(N4CCC(N)CC4)nc3[nH]c2=O)c1)c1ccccc1 (stereo not shown) [Example 137, N-(5-(3-Amino-1-phenylpropylcarbamoyl)-2-chlorophenyl)-2-(4-aminopiperidin-1-yl)-7-oxo-7,8-dihydropyrido[2,3-d]pyrimidine-6-carboxamide hydrochloride]
IC50 (Human DYRK1B; Enzyme IC50 (μM) DYRK1B): 0.0258 µM
EC50 [1]: 0.659 µM

COc1ncc2cc(C(=O)Nc3cc(C(=O)NCCCN)ccc3Cl)c(=O)[nH]c2n1 [Example 164, N-(5-(3-Aminopropylcarbamoyl)-2-chlorophenyl)-2-methoxy-7-oxo-7,8-dihydropyrido[2,3-d]pyrimidine-6-carboxamide]
IC50 (Human DYRK1B; [2]): 0.774 µM
EC50 [1]: > 10 µM

COc1ncc2cc(C(=O)Nc3cc(C(=O)NC4(c5ccccc5)CCNCC4)ccc3Cl)c(=O)[nH]c2n1 [Example 166, N-(2-Chloro-5-(4-phenylpiperidin-4-ylcarbamoyl)phenyl)-2-methoxy-7-oxo-7,8-dihydropyrido[2,3-d]pyrimidine-6-carboxamide]
IC50 (Human DYRK1B; [2]): 1.89 µM
EC50 [1, 3]: > 10 µM

COc1ncc2cc(C(=O)Nc3cc(C(=O)N[C@H](CCN)c4ccccc4)ccc3Cl)c(=O)[nH]c2n1 [Example 171, (R)—N-(5-(3-Amino-1-phenylpropylcarbamoyl)-2-chlorophenyl)-2-methoxy-7-oxo-7,8-dihydropyrido[2,3-d]pyrimidine-6-carboxamide]
IC50 (Human DYRK1B; [2]): 0.017 µM
EC50 [1]: 0.446 µM

COc1ncc2cc(C(=O)Nc3cc(C(=O)N[C@@H](CCN)c4ccccc4)ccc3Cl)c(=O)[nH]c2n1 [Example 176, (S)—N-(5-(3-Amino-1-phenylpropylcarbamoyl)-2-chlorophenyl)-2-methoxy-7-oxo-7,8-dihydropyrido[2,3-d]pyrimidine-6-carboxamide]
IC50 (Human DYRK1B; [2]): 1.15 µM
EC50 [1]: > 1 µM
